One experiment deals with T1, recombinant human DGAT1 (Homo sapiens, UniProt O75907).
T1 construct: made in house; host or cells: Sf9 insect cells (baculovirus), membrane preparation
T1 sequence (O75907 1-488): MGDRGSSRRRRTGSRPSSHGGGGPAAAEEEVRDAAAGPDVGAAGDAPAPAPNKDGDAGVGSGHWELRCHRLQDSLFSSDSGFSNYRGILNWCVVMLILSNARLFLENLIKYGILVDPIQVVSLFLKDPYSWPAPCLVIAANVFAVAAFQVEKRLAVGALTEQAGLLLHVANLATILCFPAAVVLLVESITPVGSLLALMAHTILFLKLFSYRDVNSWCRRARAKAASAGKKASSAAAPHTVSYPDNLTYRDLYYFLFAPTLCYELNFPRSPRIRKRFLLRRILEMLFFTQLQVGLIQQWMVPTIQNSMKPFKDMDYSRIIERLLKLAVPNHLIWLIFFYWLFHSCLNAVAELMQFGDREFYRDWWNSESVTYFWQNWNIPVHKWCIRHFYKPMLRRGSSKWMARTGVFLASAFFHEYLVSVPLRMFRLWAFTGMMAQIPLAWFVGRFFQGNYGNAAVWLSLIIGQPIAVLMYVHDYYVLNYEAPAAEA
The experiment is described as follows: Diacylglycerol Acyltransferase (DGAT) Assay. The class given is biochemical. The conditions noted are these: membranes from Sf9 cells expressing recombinant human DGAT1; 2-monooleoylglycerol and [3H]-oleoyl-CoA as substrates; read-out: IC50 against the DGAT1 enzyme. The protocol: Diacylglycerol Acyltransferase (DGAT) Assay
DGAT1 enzyme was assayed using membranes isolated from Sf9 cells expressing the recombinant human DGAT1 cDNA with 2-monooleoylglycerol and [^3H]-oleoyl-CoA as substrates as described by Seethala et al. (Anal Biochem., 383(2):144-150 (Dec. 15, 2008)). Briefly, the assays were conducted in 384-well plates in a total volume of 30 μl at 25° C. In each assay, 200 ng of recombinant human DGAT1 membrane was incubated with 10 μM of 2-monooleoylglycerol and 15 μM of [^3H]-oleoyl-CoA in 100 mM potassium phosphate (pH 7.4) for 20 min with various concentrations of compounds delivered in DMSO. The assay was terminated by the addition of 20 μl of Stopping Solution (7.5 mg/ml Yittrium Oxide Polylysine beads, 3.3 mg/ml Fraction V BSA and 200 μM Mercuric chloride in 50 mM HEPES, pH 7.4). The signal was measured 1 h after quenching the reaction using LEADSEEKER^SM for 5 minutes. To calculate the degree of inhibition, the zero level of enzyme activity (blank) was defined by the above assay procedure using membrane form Sf9 cell uninfected with baculovirus (Naive) and the 100% level of DGAT1 enzyme activity was defined by human […] DGAT1 assay with the vehicle DMSO. The IC50s of inhibitors were determined by logistic 4 parameter equation in XL-fit.

The target in a further experiment is T2, recombinant human TGR5 (Homo sapiens, UniProt Q8TDU6).
T2 construct: expressed in transfected cells
T2 sequence (Q8TDU6 1-330): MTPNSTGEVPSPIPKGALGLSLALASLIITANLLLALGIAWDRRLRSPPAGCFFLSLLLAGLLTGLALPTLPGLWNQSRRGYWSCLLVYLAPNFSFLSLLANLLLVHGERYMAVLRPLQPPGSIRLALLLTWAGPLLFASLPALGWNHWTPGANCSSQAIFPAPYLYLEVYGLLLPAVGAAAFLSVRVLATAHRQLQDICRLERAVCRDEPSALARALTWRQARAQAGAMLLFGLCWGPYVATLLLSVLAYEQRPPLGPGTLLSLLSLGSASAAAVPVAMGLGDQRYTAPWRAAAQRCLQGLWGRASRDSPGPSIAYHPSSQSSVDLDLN
Description: cAMP assay (cAMP accumulation, HTRF) in CHOK1 cells stably expressing TGR5. In kind it is cell-based. The following applies: CHOK1 cells stably expressing human TGR5, 30 minutes at RT, 1% DMSO. Put shortly: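 CHOK1 cells stably expressing TGR5 (text also calls it chimeric human/mouse), 0.4-0.5×10^6 cells/mL in PBS with Ca/Mg and 0.1 mM IBMX, compound 30 min at RT, 1% DMSO. cAMP by HTRF 665/620 interpolated to a standard curve; EC50 from 4-parameter fit as half-maximal increase.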

Structures can show the parent of a compound that is named as a salt.

For eleven compounds, IC50 and EC50 results are on record in patent publication US9062028B2, “Bicyclic nitrogen containing heteroaryl TGR5 receptor modulators” (Bristol-Myers Squibb Company, priority 2011, dated 2015).

`Cc1cccc(OCCCC(=O)N2CCOc3c(-c4cnn(Cc5cccc(NC(=O)NCCS(=O)(=O)O)c5)c4)cccc32)c1C` [Example 177N, 2-(3-(3-((4-(4-(4-(2,3-Dimethylphenoxy)butanoyl)-3,4-dihydro-2H-benzo[b][1,4]oxazin-8-yl)-1H-pyrazol-1-yl)methyl)phenyl)ureido) ethanesulfonic acid]: the IC50 (usually the concentration needed to halve the response being measured) on recombinant human DGAT1 is over 10 µM.

As to `Cc1cccc(OCCCC(=O)N2CCCc3c(-c4cnn(CC(=O)O)c4)cccc32)c1C` [Example 1, 2-(4-(1-(4-(2,3-Dimethylphenoxy)butanoyl)-1,2,3,4-tetrahydroquinolin-5-yl)-1H-pyrazol-1-yl)acetic acid], the 50% effective concentration (EC50) (in general, the concentration that produces a half-maximal response) on recombinant human TGR5 is 3.54 µM. Also, the IC50 on recombinant human DGAT1 is over 10 µM.

In the case of `Cc1cccc(OCCCC(=O)N2CCOc3c(-c4cnn(Cc5c(F)cc(C(=O)NCC[N+](C)(C)C)cc5Cl)c4)cccc32)c1C` [Example 177P, 2-(3-Chloro-4-((4-(4-(4-(2,3-dimethylphenoxy)butanoyl)-3,4-dihydro-2H-benzo[b][1,4]oxazin-8-yl)-1H-pyrazol-1-yl)methyl)-5-fluorobenzamido)-N,N,N-trimethylethanaminium, TFA], the IC50 on recombinant human DGAT1 is over 10 µM.

Regarding `Cc1cccc(OCCCC(=O)N2CCCc3c(-c4cnn(Cc5cccc(OCCS(=O)(=O)O)c5)c4)cccc32)c1C` [Example 215, 2-(3-((4-(1-(4-(2,3-Dimethylphenoxy)butanoyl)-1,2,3,4-tetrahydroquinolin-5-yl)-1H-pyrazol-1-yl)methyl)phenoxy)ethanesulfonic acid], the 50% inhibitory concentration (IC50) on recombinant human DGAT1 was over 10 µM.

As for `Cc1c(Cl)cccc1OCCCC(=O)N1C[C@@H]2C[C@@H]2c2c(-c3cnn(Cc4cccc(C(=O)NCCS(=O)(=O)O)c4)c3)cccc21` [Example 138A, 2-(3-((4-((1aR,7bS)-3-(4-(3-Chloro-2-methylphenoxy)butanoyl)-1a,2,3,7b-tetrahydro-1H-cyclopropa[c]quinolin-7-yl)-1H-pyrazol-1-yl)methyl)benzamido) ethanesulfonic acid], on recombinant human TGR5, the EC50 amounted to 0.024 µM. For the same compound, on recombinant human DGAT1, the 50% inhibitory concentration (IC50) is over 10 µM.

`Cc1cccc(OCCCC(=O)N2CC3CC3c3c(-c4cnn(Cc5c(F)cc(C(=O)NCCC[C@H](N)C(=O)O)cc5Cl)c4)cccc32)c1C` (stereo partly drawn) [Example 69A, (2S)-2-Amino-5-(3-chloro-4-((4-(3-(4-(2,3-dimethylphenoxy)butanoyl)-1a,2,3,7b-tetrahydro-1H-cyclopropa[c]quinolin-7-yl)-1H-pyrazol-1-yl)methyl)-5-fluorobenzamido)pentanoic acid]: on recombinant human DGAT1, the concentration for half-maximal inhibition (IC50) is over 10 µM.

Turning to `Cc1c(Cl)cccc1OCCCC(=O)N1C[C@@H]2C[C@@H]2c2c(-c3cnn(Cc4cccc(C(=O)O)c4)c3)cccc21` (single isomer, unassigned) [Example 231], the EC50 on recombinant human TGR5 came out at 0.047 µM. Moreover, the IC50 on recombinant human DGAT1 is over 10 µM.

Turning to `Cc1cccc(OCCCC(=O)N2CCCc3c(-c4cnn(Cc5cccc(NC(=O)NCS(=O)(=O)O)c5)c4)cccc32)c1C` [Example 86, (3-(3-((4-(1-(4-(2,3-Dimethylphenoxy)butanoyl)-1,2,3,4-tetrahydroquinolin-5-yl)-1H-pyrazol-1-yl)methyl)phenyl)ureido)methanesulfonic acid], at recombinant human DGAT1, the IC50 is over 10 µM.

As for `Cc1cccc(OCCCC(=O)N2CCCc3c(-c4ccnc(Nc5ccc(C(=O)O)cc5)c4)cccc32)c1C` [Example 168A, 4-(4-(1-(4-(2,3-Dimethylphenoxy)butanoyl)-1,2,3,4-tetrahydroquinolin-5-yl)pyridin-2-ylamino) benzoic acid], the IC50 at recombinant human DGAT1 is over 10 µM.

In the case of `Cc1cccc(OCCCC(=O)N2C[C@@H]3C[C@@H]3c3c(-c4cccc(COC(=O)NCCC(=O)O)c4)cccc32)c1C` (single isomer, unassigned) [Example 237], on recombinant human DGAT1, the IC50 was over 10 µM.

Consider `Cc1cccc(OCCCC(=O)N2CCCc3c(-c4cnn(Cc5cccc(OCCP(=O)(O)O)c5)c4)cccc32)c1C` [Example 69M, 2-(3-((4-(1-(4-(2,3-Dimethylphenoxy)butanoyl)-1,2,3,4-tetrahydroquinolin-5-yl)-1H-pyrazol-1-yl)methyl)phenoxy)ethylphosphonic acid], for which the IC50 on recombinant human DGAT1 was over 10 µM.
